Broadly, the EC50 is the concentration needed to bring the measured effect to its halfway point. The solubility is how much of the substance goes into solution per volume.

We go through two compounds from patent US8722849B2, “Polypeptides” (Novo Nordisk A/S, priority 2011, dated 2014).

The target in series [1] is T1, human amylin receptor (amylin 3(a) receptor: human calcitonin receptor + RAMP-3) (Homo sapiens, UniProt O60896+P30988).
T1 construct: expressed in transfected cells; host or cells: BHK570
T1 sequence (P30988 25-474): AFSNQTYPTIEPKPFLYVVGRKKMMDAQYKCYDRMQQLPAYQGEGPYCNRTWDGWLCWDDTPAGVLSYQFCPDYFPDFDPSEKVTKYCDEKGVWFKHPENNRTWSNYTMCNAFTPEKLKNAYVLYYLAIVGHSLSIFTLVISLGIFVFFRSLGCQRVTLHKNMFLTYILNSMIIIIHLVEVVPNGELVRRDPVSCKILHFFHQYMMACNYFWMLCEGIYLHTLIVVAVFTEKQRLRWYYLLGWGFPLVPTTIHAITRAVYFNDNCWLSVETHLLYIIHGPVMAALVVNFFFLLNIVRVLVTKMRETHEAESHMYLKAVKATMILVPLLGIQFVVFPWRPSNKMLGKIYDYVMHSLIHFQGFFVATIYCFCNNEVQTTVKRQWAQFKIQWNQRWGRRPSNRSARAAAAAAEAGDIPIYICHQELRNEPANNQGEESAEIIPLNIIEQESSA
T1 sequence (O60896 24-148 partner): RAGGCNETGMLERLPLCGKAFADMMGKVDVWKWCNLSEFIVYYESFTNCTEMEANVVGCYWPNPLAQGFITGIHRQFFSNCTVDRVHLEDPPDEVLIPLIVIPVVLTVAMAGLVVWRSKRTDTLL
As to the kind of experiment: Assay (II)a functional CRE-luciferase assay, human amylin receptor. Type of series: cell-based. The settings on record: Table 2; BHK amylin 3(a)-receptor/CRE-luc cells.

The target of series [2] is T2, human calcitonin receptor (Homo sapiens, UniProt P30988).
T2 construct: expressed in transfected cells; host or cells: BHK570
T2 sequence (P30988 25-474): T1 sequence (P30988 25-474)
As to the kind of experiment: Assay (II)a functional CRE-luciferase assay, human calcitonin receptor. Type of series: cell-based. The settings on record: Table 7; human calcitonin (CTa) receptor.

A short description of series [3]: Assay (III) ThT fibrillation assay for physical stability. It is filed as physicochemical. The settings on record: ThT fibrillation assay. In a few lines:
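Freshly prepared formulations, pH-adjusted, with 1 μM ThT; four or eight replicates incubated at 37 °C under 960 rpm orbital shaking. Fluorescence (ex 444/em 485 nm) read every 20 min; […]. Peptide concentration measured by RP-HPLC before and after the run.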

Series [4] can be described thus: Assay (IV) determination of solubility. It is filed as physicochemical. In a few lines:
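Polypeptide in water (~500 nmol/ml) mixed 1:1 with 100 mM glycylglycine (pH 3.0–5.0) or bistrispropane (pH 6.0–8.0) buffers. Held 18 hours at room temperature, then centrifuged. Polypeptide remaining in solution quantified by HPLC.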

Where [5] appears, read: bistrispropane buffer, pH 6, pH 6.0, read-out: Solubility pH 6.0.
Setting [6] is: bistrispropane buffer, pH 6.5, pH 6.5, read-out: Solubility pH 6.5.
The mark [7] stands for this setting: bistrispropane buffer, pH 7, pH 7.0, read-out: Solubility pH 7.0.
Where [8] appears, read: bistrispropane buffer, pH 7.5, pH 7.5, read-out: Solubility pH 7.5.
Setting [9] is: bistrispropane buffer, pH 8, pH 8.0, read-out: Solubility pH 8.0.
Where [10] appears, read: glycylglycine buffer, pH 3, pH 3.0, read-out: Solubility pH 3.0.
The mark [11] stands for this setting: glycylglycine buffer, pH 4, pH 4.0, 18 hours at room temperature, Table 2, read-out: Solubility pH 4.0.
The mark [12] stands for this setting: glycylglycine buffer, pH 4, pH 4.0, read-out: Solubility pH 4.0.
The mark [13] stands for this setting: glycylglycine buffer, pH 5, pH 5.0, read-out: Solubility pH 5.0.

≈ marks a conversion by molar mass, not a printed value. Like-named read-outs stand apart in the source and are kept apart here. Starred links: 1 amine or outer side, 2 acyl side, 3 side chain; linkers in the order of their positions; H or OH if unused. Positions of bridges follow the written chain, without caps; N, C: chain ends. Residues, ends and D or L forms follow the SMILES beside them. *: point of attachment. C20 diacid = O=C(O)CCCCCCCCCCCCCCCCCCC(=O)*; γGlu = O=C(O)[C@H](CCC(=O)[*:2])N[*:1]

`CC[C@H](C)[C@H](NC(=O)[C@@H]1CCCN1C(=O)CNC(=O)[C@H](Cc1ccccc1)NC(=O)[C@H](CC(N)=O)NC(=O)[C@H](CC(N)=O)NC(=O)[C@H](CO)NC(=O)[C@H](CO)NC(=O)[C@H](Cc1c[nH]cn1)NC(=O)[C@H](Cc1c[nH]cn1)NC(=O)[C@H](CC(C)C)NC(=O)[C@H](Cc1ccccc1)NC(=O)[C@H](CCC(=O)O)NC(=O)[C@H](C)NC(=O)[C@H](CC(C)C)NC(=O)[C@H](CCCNC(=N)N)NC(=O)[C@H](CCC(N)=O)NC(=O)[C@@H](NC(=O)[C@H](C)NC(=O)[C@@H]1CSSC[C@H](NC(=O)[C@H](Cc2c[nH]cn2)NC(=O)CNC(=O)CC[C@H](NC(=O)CCCCCCCCCCCCCCCCCCC(=O)O)C(=O)O)C(=O)N[C@@H](CC(N)=O)C(=O)N[C@@H]([C@@H](C)O)C(=O)N[C@@H](C)C(=O)N[C@@H]([C@@H](C)O)C(=O)N1)[C@@H](C)O)C(=O)N[C@@H](CC(C)C)C(=O)N1CCC[C@H]1C(=O)N1CCC[C@H]1C(=O)N[C@H](C(=O)N[C@@H](CC(N)=O)C(=O)N[C@H](C(=O)NCC(=O)N[C@@H](CO)C(=O)N[C@@H](CC(N)=O)C(=O)N[C@H](C(=O)N1CCC[C@H]1C(N)=O)[C@@H](C)O)C(C)C)[C@@H](C)O` [Example 92, N-alpha-[(S)-4-Carboxy-4-(19-carboxynonadecanoylamino)butyryl]-Gly-[His1,Glu14,His17,Pro37]-pramlintide] ({C20 diacid-γGlu}-GHCNTATCATQRLAEFLHHSSNNFGPILPPTNVGSNTP-NH2; disulfide 3-8 (inferred); C-terminus assumed): the figures for the EC50 in series [1] and in series [2] were 0.052 nM and 0.049 nM, respectively. The “ThT pH 4.0 lag time (h)” value in series [3] was 15.3 h. Further, the solubility at 18 h in series [4] (setting [5]) was over 200 µM; in series [4] (setting [6]) it was over 200 µM; in series [4] (bistrispropane buffer, pH 7, pH 7.0, 18 hours at room temperature, Table 3, read-out: Solubility pH 7.0), over 200 µM; in series [4] (setting [7]) it was over 200 µM; in series [4] (setting [8]) it was over 200 µM; in series [4] (setting [9]), over 200 µM. In addition, the solubility at 18 h in series [4] (setting [10]), in series [4] (setting [11]), in series [4] (setting [12]) and in series [4] (setting [13]) was over 200 µM each time.
With `CC(C)C[C@H](NC(=O)[C@H](CCCNC(=N)N)NC(=O)[C@H](CCC(N)=O)NC(=O)[C@@H](NC(=O)[C@H](C)NC(=O)[C@@H]1CSSC[C@H](NC(=O)[C@H](CCCCN)NC(=O)CC[C@H](NC(=O)CCCCCCCCCCCCCCCCCCC(=O)O)C(=O)O)C(=O)N[C@@H](CC(N)=O)C(=O)N[C@@H]([C@@H](C)O)C(=O)N[C@@H](C)C(=O)N[C@@H]([C@@H](C)O)C(=O)N1)[C@@H](C)O)C(=O)N[C@@H](C)C(=O)N[C@@H](CCC(=O)O)C(=O)N[C@@H](Cc1ccccc1)C(=O)N[C@@H](CC(C)C)C(=O)N[C@@H](Cc1c[nH]cn1)C(=O)N[C@@H](Cc1c[nH]cn1)C(=O)N[C@@H](CO)C(=O)N[C@@H](CO)C(=O)N[C@@H](CC(N)=O)C(=O)N[C@@H](CC(N)=O)C(=O)N[C@@H](Cc1ccccc1)C(=O)NCC(=O)N[C@@H](C)C(=O)N1CCC[C@H]1C(=O)N[C@@H](CC(C)C)C(=O)N[C@@H](CO)C(=O)N[C@@H](CO)C(=O)N[C@H](C(=O)N[C@@H](CC(N)=O)C(=O)N[C@H](C(=O)NCC(=O)N[C@@H](CO)C(=O)N[C@@H](Cc1c[nH]cn1)C(=O)N[C@H](C(=O)N[C@@H](Cc1ccc(O)cc1)C(N)=O)[C@@H](C)O)C(C)C)[C@@H](C)O` [Example 64, N-alpha-[(S)-4-Carboxy-4-(19-carboxynonadecanoylamino)butyryl]-[Glu14,His17,Ala25,Pro26,Ser28,Ser29,His35]-pramlintide] ({C20 diacid-γGlu}-KCNTATCATQRLAEFLHHSSNNFGAPLSSTNVGSHTY-NH2; disulfide 2-7 (inferred)), the EC50 in series [1] amounted to 0.153 nM; in series [2] it was 0.0945 nM. In addition, the “ThT pH 4.0 lag time (h)” value in series [3] is given as 6 h. Besides, the solubility at 18 h in series [4] (setting [5]) is over 200 µM; in series [4] (setting [6]), 189 µM (≈ 835 µg/mL); in series [4] (setting [7]), 91 µM (≈ 402 µg/mL); in series [4] (setting [8]) it was 136 µM (≈ 601 µg/mL); in series [4] (setting [9]), over 200 µM; in series [4] (setting [10]), over 200 µM. Moreover, the solubility at 18 h in series [4] (setting [11]), in series [4] (setting [12]) and in series [4] (setting [13]) was over 200 µM each time.
